Experiments:
CYP3A = conditions: 38 published studies, 411 subjects; concomitantly administered CYP3A inhibitor; cited from earlier work
[1] = Example 3: cross-study comparison of exposure with historic study of 1200 mg mifepristone OD; type: in vivo, human; conditions: Test: Day 17, 600 mg mifepristone OD + 200 mg Ketoconazole BID; Reference: historic study Day 7, 1200 mg mifepristone OD alone; after 34% fat meal
[2] = Example 3: effect of ketoconazole 200 mg twice daily on PK of mifepristone 600 mg once daily and metabolites, with food; type: in vivo, human; conditions: for concentrations on Day 17 compared with Day 12: 600 mg mifepristone daily with 200 mg ketoconazole twice daily vs mifepristone alone; for Ratio % Test/Reference, AUC0-24 / Ratio % Test/Reference, Cmax: Test: Day 17, 600 mg mifepristone OD + 200 mg Ketoconazole BID, Reference: Day 12, 600 mg mifepristone OD, geometric mean ratio
Procedure: (§1) A single dose of ketoconazole was administered on Day −1.
(§2) The study was a two period study design.
Concentrations of RU 42633 and RU 42848 were similar on Day 17 and Day 12.

clinical = conditions: male, human, in vivo
Procedure: This study was conducted in accordance with Good Clinical Practice under the guidance of an Institutional Review Board and in accordance with applicable local legal and regulatory requirements.
KORLYM® was supplied in 300 mg tablets for oral administration. Three or four tablets were administered once daily (OD) to provide either the 900 mg or 1200 mg per day dose.
Itraconazole was supplied • in 100 mg capsules for oral administration. Two capsules were administered once daily (OD) to provide the 200 mg per day dose.
All drug administrations were oral and were given after the morning meal.
The inclusion criteria required, among other criteria, that the subjects be healthy male subjects between the ages of 18 and 65, weigh more than 110 pounds, and have a body mass index (BMI) of 18 to 32 kg/m^2. The design included a Screening Period of up to 3 weeks (subjects were screened at a time between days −21 to −1 prior to the first treatment period), three 14-day treatment periods, and a Follow-Up (FU) Period of 14 days for safety observation.
Subjects meeting the inclusion criteria (n=22) were administered drug daily and blood samples were taken on the days indicated below during Periods 1-3 and on day 43 of the follow-up period.
Subjects presented at the Clinical Research Unit (CRU) after an 8-hour overnight fast, then predose PK samples were taken and other evaluations (predose electrocardiograms (ECGs), plasma cortisol and ACTH, serum chemistry tests) were performed. […] On the specific days indicated above, additional blood draws for determining 24-hour PK profiles were performed.
Pharmacokinetic (PK) parameters measured and computed included AUC (area under the concentration−time curve), AUC0-24 (AUC values from time 0 to 24 hours postdose), Cmax (maximum concentration), and Css (average steady-state concentration, calculated as AUC0-24/24).

[3] = Example 2: PK of ketoconazole 400 mg single dose on Day 8 of mifepristone regimen; type: in vivo, human; conditions: single 400 mg ketoconazole dose on Day 8
From the text: (§3) Subjects were discharged on Day 11.
(§4) Subjects were discharged on Day 11. Subjects in both cohorts returned to study center on Day 13 for safety monitoring, collection of the 120-hour PK draw, and completion of the Termination Visit procedures, followed by discharge from the study. To the extent possible, any adverse events deemed study drug-related and that were ongoing at the time of discharge from the study were followed-up to resolution or until a determination was made that the unresolved event was stable.
(§5) DURATION OF TREATMENT: Up to a total of 28 days, including up to 2 weeks screening, dosing on Days 1-8, safety observation, and PK sample collection through Day 13.
(§6) Additionally, comparisons were made between the PK results of cohort 1 and 2. Pharmacokinetic parameters Cmax, T½ and total AUC were calculated for plasma concentrations of ketoconazole following the single dose on Day 8. Descriptive statistics (count, mean, median, standard deviation, minimum, maximum, and % coefficient of variation) were provided. Ketoconazole concentrations were listed and summarized. GM means of Cmax and total AUC were compared for the single dose in this study to the combined data of reported 400 mg single doses of ketoconazole of healthy subjects from the literature.

[4] = Example 3: effect of co-administration with mifepristone on ketoconazole PK; type: in vivo, human
Procedure: as §1, §2

[5] = Example 2: effect of a 400 mg single dose of ketoconazole on PK of an 8-day regimen of 300 mg or 600 mg OD mifepristone after moderate fat breakfast; type: in vivo, human; conditions: 300 or 600 mg OD mifepristone
Procedure: This was an open-label study in healthy male subjects. […] The 400 mg single dose of ketoconazole was given to all subjects on day 8.
METHODOLOGY: Twelve subjects were enrolled, six in Cohort 1 and 6 in Cohort 2.
as §3, §4
DIAGNOSIS AND MAIN […] FOR INCLUSION: Healthy male volunteers between the ages of 18 to 45 years of age with a body mass index (BMI) ranging between 19 and 32 kg/m2 and a weight of at least 60 kg (132 lbs) were enrolled. Subjects had no clinically significant abnormal findings on the physical examination, ECG, blood pressure, heart rate, medical history, or clinical laboratory results during screening. The QTc interval at screening was less than 450 msec.
as §5, §6

[6] = 600 mg mifepristone OD + 200 mg ketoconazole BID
[7] = 400 mg ketoconazole (200 mg twice per day) with 600 mg mifepristone per day
[8] = Test: Day 17, 600 mg mifepristone OD + 200 mg Ketoconazole BID, Reference: Day −1, 200 mg Ketoconazole single dose

SMILES	Ratio % Test/Ref, AUC0-24 [1]	Ratio % Test/Ref, Cmax [1]	change in exposure on co-administration with ketoconazole [2, 6]	concentrations on Day 17 compared with Day 12 [2]	Ratio % Test/Reference, AUC0-24 [2]	Ratio % Test/Reference, Cmax [2]	AUC(0-t) (clinical; 900 mg)	Cmax (clinical; 900 mg)	AUC(0-t) (clinical; 1200 mg)	Cmax (clinical; 1200 mg)	increase of plasma levels (AUC) of orally administered midazolam (CYP3A)	other results
CC[C@H]1OC(=O)[C@H](C)[C@@H](O[C@H]2C[C@@](C)(OC)[C@@H](O)[C@H](C)O2)[C@H](C)[C@@H](O[C@@H]2O[C@H](C)C[C@H](N(C)C)[C@H]2O)[C@](C)(OC)C[C@@H](C)C(=O)[C@H](C)[C@@H](O)[C@]1(C)O [clarithromycin]	–	–	–	–	–	–	–	–	–	–	more than 6 fold	–
CCC(C)n1ncn(-c2ccc(N3CCN(c4ccc(OCC5COC(Cn6cncn6)(c6ccc(Cl)cc6Cl)O5)cc4)CC3)cc2)c1=O (stereo not drawn) [itraconazole]	–	–	–	–	–	–	–	–	–	–	more than 7 fold	–
CC(=O)N1CCN(c2ccc(OCC3COC(Cn4ccnc4)(c4ccc(Cl)cc4Cl)O3)cc2)CC1 (stereo not drawn) [Ketoconazole, 1-acetyl-4-[4-[[2-(2,4-dichlorophenyl)-2-[(1H-imidazol-1-yl)-methyl]-1,3-dioxolan-4-yl]methoxy]phenyl]piperazine]	–	–	–	–	–	–	–	–	–	–	more than 11 fold	ketoconazole half-life on either mifepristone regimen [3]: not appreciably different; increase in ketoconazole AUC with concomitant mifepristone [4, 7]: 253%; increase in ketoconazole Cmax with concomitant mifepristone [4, 7]: 365%; Ratio % Test/Reference, AUC [4, 8]: 365.36%; Ratio % Test/Reference, Cmax [4, 8]: 252.71%

Second part, led by results:

Ratio % Test/Ref, AUC0-24 [1]	Ratio % Test/Ref, Cmax [1]	change in exposure on co-administration with ketoconazole [2, 6]	concentrations on Day 17 compared with Day 12 [2]	Ratio % Test/Reference, AUC0-24 [2]	Ratio % Test/Reference, Cmax [2]	AUC(0-t) (clinical; 900 mg)	Cmax (clinical; 900 mg)	AUC(0-t) (clinical; 1200 mg)	Cmax (clinical; 1200 mg)	SMILES	increase of plasma levels (AUC) of orally administered midazolam (CYP3A)	other results
91.34%	96.31%	little change in exposure	similar	102.33%	105.73%	40300 ng·h/mL	1970 ng/mL	45800 ng·h/mL	2160 ng/mL	CC#C[C@]1(O)CC[C@H]2[C@@H]3CCC4=CC(=O)CCC4=C3[C@@H](c3ccc(NC)cc3)C[C@@]21C [RU 42633, (8S,11R,13S,14S,17S)-17-hydroxy-13-methyl-11-[4-(methylamino)phenyl]-17-prop-1-ynyl-1,2,6,7,8,11,12,14,15,16-decahydrocyclopenta[a]phenanthren-3-one]	–	–
81.43%	82.45%	little change in exposure	similar	94.88%	95.48%	33900 ng·h/mL	1630 ng/mL	36500 ng·h/mL	1770 ng/mL	CC#C[C@]1(O)CC[C@H]2[C@@H]3CCC4=CC(=O)CCC4=C3[C@@H](c3ccc(N)cc3)C[C@@]21C [RU 42848, (8S,11R,13S,14S,17S)-11-(4-aminophenyl)-17-hydroxy-13-methyl-17-prop-1-ynyl-1,2,6,7,8,11,12,14,15,16-decahydrocyclopenta[a]phenanthren-3-one]	–	trough concentrations through the start of ketoconazole administration (Day 13) ([2]; FIG. 1, 600 mg mifepristone OD): increasing day-by-day
118.18%	116.55%	–	higher	166.86%	169.13%	15100 ng·h/mL	755 ng/mL	16900 ng·h/mL	853 ng/mL	CN(C)c1ccc([C@H]2C[C@@]3(C)[C@@H](CC[C@@]3(O)C#CCO)[C@@H]3CCC4=CC(=O)CCC4=C32)cc1 [RU 42698, (8S,11R,13S,14S,17S)-11-[4-(dimethylamino)phenyl]-17-hydroxy-17-(3-hydroxyprop-1-ynyl)-13-methyl-1,2,6,7,8,11,12,14,15,16-decahydrocyclopenta[a]phenanthren-3-one]	–	mean metabolite exposure compared with mifepristone [5]: lower; mean increase in exposure on co-administration with ketoconazole [2, 6]: approximately 70%; share of the total steady-state AUC0-24 of mifepristone, RU42633, RU42698, RU42848 ([2]; in the presence of ketoconazole): 13%; share of the total steady-state AUC0-24 of mifepristone, RU42633, RU42698, RU42848 ([2]; mifepristone alone): 9%

From patent US12097210B2, “Concomitant administration of glucocorticoid receptor modulators and CYP3A inhibitors” (Corcept Therapeutics, Inc., priority 2017, dated 2024)
